# PMC10472371, “Discovery of E2730, a novel selective uncompetitive GAT1 inhibitor, as a candidate for anti‐seizure medication” (Epilepsia Open, 2023)
# “Also recorded” adds a separate entry of the source.
# Test system: extracellular GABA concentration in mouse hippocampus
# Test: Microdialysis: extracellular GABA concentration in mouse hippocampus
# Assay type: in vivo
# Protocol: A guide cannula was implanted in the left hippocampus (2.7 mm posterior, 3.3 mm left, and 1.8 mm below from the bregma) of ddY mice (male, 5 weeks old). After 5–7 days of recovery, a microdialysis probe (Eicom) was inserted into the left hippocampus through the guide cannula. The tip of the microdialysis probe reached 4.8 mm below the bregma. The next day, the probe was connected to a perfusion tube and perfused with Ringer solution (containing 147.0 mM NaCl, 4.7 mM KCl, 0.6 mM MgSO4, 2.5 mM CaCl2, 5.0 mM HEPES, pH 7.4) at a flow rate of 1.5 μL/min. After ≥160 minutes of perfusion, collection of the perfusate (30 μL/20 min/fraction) was initiated, and 12 fractions per animal were collected for 240 minutes. E2730 (10–100 mg/kg), tiagabine (3–30 mg/kg), or vehicle was orally administered 72 minutes after initiating sample collection. Tiagabine was used as a reference ASM of a non‐competitive GAT1 inhibitor. Perfusate was switched from Ringer solution to high‐potassium Ringer solution (51.7 mM NaCl, 100.0 mM KCl, 0.6 mM MgSO4, 2.5 mM CaCl2, 5.0 mM HEPES, pH 7.4) after 127 minutes following the collection. GABA concentration in each sample was measured by a high‐performance liquid chromatography with tandem mass spectrometry method.
# [1] = mouse hippocampus, oral, E2730 10-100 mg/kg, tiagabine 3-30 mg/kg
smiles,measurement,setting,value
NS(=O)(=O)N[C@H]1c2c(F)cc(F)cc2CC1(F)F [E2730],effect on high-potassium-induced extracellular GABA concentration,E2730 10 mg/kg,not statistically significant
same,effect on high-potassium-induced extracellular GABA concentration,E2730 30 and 100 mg/kg,significantly increased
same,effect on basal extracellular GABA concentration,[1],no significant difference; also recorded: did not increase; also recorded: did not affect
same,effect on high-potassium-induced extracellular GABA concentration,[1],significant increase
